US11945833B2, “Prodrugs of L-BHDU and methods of treating viral infections” (priority 2021, dated 2024)
“Also recorded” adds a separate entry of the source. Like-named read-outs stand apart in the source and are kept apart here.

Assays:
VZV-ORF57-Luc [1] = assay: NuSkin mouse model of VZV replication (adult human skin xenografts), bioluminescence imaging; assay type: in vivo, Athymic Nude mice; settings: for in vivo antiviral activity against VZV (in words): s.c. once daily days 3-9 post-infection, equimolar to cidofovir 10 mg/kg; for dose effective in vivo: subcutaneous (s.c.); for activity compared with cidofovir in repeated in vivo studies: subcutaneous (s.c.) as well as oral route, cidofovir 10 mg/Kg
Description: Mice were treated with vehicle or drugs, and virus yield was measured by bioluminescence imaging. VZV growth rate for individual mice (symbols) and the average for the group (bars) are shown in (A) and (B). […] The overall significance on day 10 post-inoculation (DPI 10) is p=0.0352 (one-way ANOVA). ** p<0.01 for OED-L-BHDU & POM-L-BHDU and (student's t test with Welch's correction). Cidofovir group (i.p.) has an average fold change of 2-5 on DPI 10. (B).

VZV-ORF57-Luc [2] = assay: Antiviral activity in ARPE-19 cells infected with VZV-ORF57-Luc; assay type: cell-based, Varicella-zoster virus; settings: for in vitro anti-VZV activity (in words): VZV-ORF57-Luc
Description: To enhance the antiviral activity octadecyloxyethyl-L-BHDU (ODE-L-BHDU, 5) and hexadecyloxypropyl-L-BHDU (HDP-L-BHDU, 6), POM-L-BHDU (8), and POC-L-BDHU (14) (FIGS. 1-3, Schemes 1-3) prodrugs were synthesized with modifications to increase bioavailability and cell penetration. Their antiviral activity was evaluated in ARPE-19 cells infected with VZV-ORF57-Luc, a new reporter virus.

[3] = tested on: human fibroblast (HFFs) cells; assay type: cell-based
Description: The cellular toxicity of synthesized analogs was determined on low passage of human fibroblast (HFFs) cells by performing 72 h of neutral red dye uptake and MTT cell proliferation assays.

HSV-1 = assay: Anti-HSV-1 activity in Vero cells; assay type: cell-based, herpes simplex virus
Description: Additionally, all synthesized compounds were also tested in vitro against herpes simplex viruses (HSV-1, oral herpes) in Vero cells, FIG. 8.

[4] = cited from earlier work
[5] = target: T1, dihydropyridine dehydrogenase (Homo sapiens, UniProt Q12882); settings: cited from earlier work
T1 sequence (Q12882 4-1025): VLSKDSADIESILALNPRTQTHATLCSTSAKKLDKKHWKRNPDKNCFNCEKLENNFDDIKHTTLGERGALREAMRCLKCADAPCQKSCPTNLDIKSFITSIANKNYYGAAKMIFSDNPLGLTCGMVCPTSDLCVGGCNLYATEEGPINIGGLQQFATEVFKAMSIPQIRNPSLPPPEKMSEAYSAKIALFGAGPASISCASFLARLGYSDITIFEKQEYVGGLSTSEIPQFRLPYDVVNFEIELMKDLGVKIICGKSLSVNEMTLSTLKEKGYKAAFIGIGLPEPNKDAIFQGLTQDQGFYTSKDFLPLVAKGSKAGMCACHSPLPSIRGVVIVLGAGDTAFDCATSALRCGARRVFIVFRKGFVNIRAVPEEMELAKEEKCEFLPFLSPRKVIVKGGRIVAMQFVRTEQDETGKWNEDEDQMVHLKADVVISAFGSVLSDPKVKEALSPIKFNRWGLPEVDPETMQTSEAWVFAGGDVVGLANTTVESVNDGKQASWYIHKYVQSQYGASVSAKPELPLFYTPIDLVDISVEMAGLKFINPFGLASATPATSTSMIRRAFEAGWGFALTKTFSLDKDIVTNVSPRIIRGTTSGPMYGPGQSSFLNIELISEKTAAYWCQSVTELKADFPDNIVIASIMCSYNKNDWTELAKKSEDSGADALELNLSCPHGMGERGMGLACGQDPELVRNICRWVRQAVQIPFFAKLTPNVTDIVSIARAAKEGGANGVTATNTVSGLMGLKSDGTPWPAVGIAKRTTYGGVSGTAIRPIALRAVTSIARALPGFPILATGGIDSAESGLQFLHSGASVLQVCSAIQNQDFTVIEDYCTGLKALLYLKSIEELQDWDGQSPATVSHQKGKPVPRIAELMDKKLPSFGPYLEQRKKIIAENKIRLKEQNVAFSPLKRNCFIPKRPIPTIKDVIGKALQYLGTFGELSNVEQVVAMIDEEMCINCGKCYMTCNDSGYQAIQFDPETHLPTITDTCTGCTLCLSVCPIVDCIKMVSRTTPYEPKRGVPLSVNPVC

HSV-2 = assay: Anti-HSV-2 activity in Vero cells, bioluminescence imaging; assay type: cell-based, herpes simplex virus
Description: HSV-2 yield was determined by bioluminescence imaging. Each point represents the mean±standard deviation of a triplicate sample
Furthermore, antiviral activity of these analogs was tested in vitro against the HSV-2 (genital herpes) in Vero cells using acyclovir as a standard drug reference. […] All other analogs, including L-BDHU, were found ineffective against the HSV-2 (FIG. 11, Table 3). After these findings, it was determined that POM-L-BHDU […] has potential against the HSV-1 & HSV-2. Further in vivo evaluation of POM prodrug of the L-BDHU will confirm activity.

VZV [6] = settings: cited from earlier work; for in vivo reduction in VZV growth compared to ACV and VACV: previous in vivo studies
VZV [7] = assay: Topical treatment of VZV in human skin explant model; settings: formulated in cocoa butter
From the text: (§1) Each compound was formulated in Cocoa Butter and applied topically. POM was formulated in equimolar concentrations to 0.1% L-BHDU.

HSV1 = assay: Topical treatment of HSV1 in human skin explant model; settings: formulated in cocoa butter
From the text: as §1

VZV-BAC-Luc = settings: previous assay, HFFs infected with VZV-BAC-Luc; read-out: EC50 against VZV in HFFs; cited from earlier work
[8] = tested on: human foreskin fibroblast (HFFS) cells; settings: cited from earlier work
[9] = tested on: cell-associated VZV-ORF57-Luc; assay: Antiviral screening against cell-associated VZV-ORF57-Luc in ARPE-19 cells; assay type: cell-based, Varicella-zoster virus
Description: Cidofovir and acyclovir are positive controls. Each symbol represents the average of 6 replicate wells; the line is the best fit curve (error bars omitted for clarity).
These studies were performed in the same manner as the efficacy studies described above, except cell-associated VZV-ORF57-Luc, VZV-ORF57-ΔTK, VZV-ORF57-ΔTS and VZV-ORF57-ΔTKTS were used to infect ARPE-19 cells. As before, CDV and ACV were used as positive controls.

[10] = Tolerability and weight change in NuSkin mice; settings: male and female mice
[11] = read-out: EC50 against VZV-ORF57-Luc

Nc1ccn(C[C@@H](CO)OCP(=O)(O)O)c(=O)n1 [Cidofovir, cidofovir, reference compound]
average fold change on DPI 10 (VZV-ORF57-Luc [1]; i.p., day 10 post-inoculation): 2-5 fold

CCCCCCCCCCCCCCCCOCCCOP(=O)(O)OC[C@H]1OC[C@@H](n2cc(/C=C/Br)c(=O)[nH]c2=O)O1 [HDP-L-BHDU, hexadecyloxypropyl-L-BHDU]
in vitro anti-VZV activity (in words) (VZV-ORF57-Luc [2]): lower antiviral activity relative to L-BHDU; also recorded: lower in vitro activity than the parental molecule
EC50 (VZV-ORF57-Luc [2]; [11]): 0.9 µM
CC50 [3]: 10 µM

O=c1[nH]c(=O)n([C@@H]2CO[C@H](CO)O2)cc1/C=C/Br [L-BHDU]
anti-HSV-1 activity (in words) (HSV-1): good activity
EC50 (HSV-1; read-out: EC50 against HSV-1): 0.007 µM
levels in mouse organs [4]: reached high levels in mouse organs but not in the brain
well tolerated dose ([4]; mouse, in vivo): up to 150 mg/kg
inhibition of dihydropyridine dehydrogenase activity [5]: does not inhibit
anti-HSV-2 activity (in words) (HSV-2; listed as L-BDHU): ineffective; also recorded: inactive
dose effective in SCID-Hu mouse model of VZV replication (VZV [6]; human fetal skin): 15 mg/kg
in vivo reduction in VZV growth compared to ACV and VACV (VZV [6]): significant reduction in VZV growth
in vivo antiviral activity against VZV (in words) (VZV-ORF57-Luc [1]): ineffective
prevention of VZV spread in adult human skin (VZV [7]): highly effective
prevention of HSV1 spread in adult human skin (HSV1): highly effective
EC50 (VZV-ORF57-Luc [2]; read-out: EC50 against VZV in ARPE-19s): 0.022 µM
EC50 (VZV-ORF57-Luc [2]; [11]): 0.022 µM
EC50 (VZV-BAC-Luc): 0.22 µM
CC50 (Vero Cells): > 100 µM
CC50 [3]: > 100 µM
effect on cellular proliferation [3]: did not affect cellular proliferation

CC(C)C(N)C(=O)OCC1OCC(n2cc(/C=C/Br)c(=O)[nH]c2=O)O1 [L-valyl-L-BHDU]
in vivo reduction in VZV growth compared to ACV and VACV (VZV [6]): significant reduction in VZV growth
CC50 [8]: 200 µM
EC50 (VZV-BAC-Luc): 0.03 µM

CCCCCCCCCCCCCCCCCCOCCOP(=O)(O)OC[C@H]1OC[C@@H](n2cc(/C=C/Br)c(=O)[nH]c2=O)O1 [ODE-L-BHDU, L-BHDU-5′-[(2-octadecyloxyethyl)phosphate]]
potency against cell-associated VZV-ORF57-Luc compared to CDV or ACV [9]: less potent compared to CDV
anti-HSV-1 activity (in words) (HSV-1): good activity
EC50 (HSV-1; read-out: EC50 against HSV-1): 0.757 µM
tolerability / toxicity in mice [10]: without significant toxicity
tolerability / toxicity in mice ([10]; listed as OED-L-BHDU): well-tolerated
in vivo antiviral activity against VZV (in words) (VZV-ORF57-Luc [1]): better antiviral activity in comparison to L-BHDU; also recorded: most active
in vivo antiviral activity against VZV (in words) (VZV-ORF57-Luc [1]; listed as OED-L-BHDU): superior antiviral potency compared to L-BHDU; also recorded: significantly enhanced in vivo antiviral activity in comparison to L-BHDU
dose effective in vivo (VZV-ORF57-Luc [1]): around 25 mg/kg/day
activity compared with cidofovir in repeated in vivo studies (VZV-ORF57-Luc [1]): more active than the cidofovir
in vitro anti-VZV activity (in words) (VZV-ORF57-Luc [2]): lower antiviral activity relative to L-BHDU
in vitro anti-VZV activity (in words) (VZV-ORF57-Luc [2]; listed as OED-L-BHDU): lower in vitro activity than the parental molecule
EC50 (VZV-ORF57-Luc [2]; [11]): 0.068 µM
concentration at which cellular cytotoxicity was exhibited (Vero Cells): 20 µM

CC(C)OC(=O)OCOP(=O)(OCOC(=O)OC(C)C)OC[C@H]1OC[C@@H](n2cc(/C=C/Br)c(=O)[nH]c2=O)O1 [POC-L-BHDU, Bis (POC) prodrug L-BHDU]
anti-HSV-1 activity (in words) (HSV-1): good activity
EC50 (HSV-1; read-out: EC50 against HSV-1): 0.026 µM
in vivo antiviral activity against VZV (in words) (VZV-ORF57-Luc [1]): ineffective
in vivo antiviral activity against VZV (in words) (VZV-ORF57-Luc [1]; listed as POC (14)): better in vitro and in vivo activity in comparison to L-BDHU
in vitro anti-VZV activity (in words) (VZV-ORF57-Luc [2]): significant anti-VZV activity; also recorded: good antiviral efficacy
in vitro anti-VZV activity (in words) (VZV-ORF57-Luc [2]; listed as POC (14)): better in vitro and in vivo activity in comparison to L-BDHU
EC50 (VZV-ORF57-Luc [2]; [11]): 0.034 µM
CC50 (Vero Cells): > 100 µM
CC50 [3]: > 100 µM
effect on cellular proliferation [3]: did not affect cellular proliferation

CC(C)(C)C(=O)OCOP(=O)(OCOC(=O)C(C)(C)C)OC[C@H]1OC[C@@H](n2cc(/C=C/Br)c(=O)[nH]c2=O)O1 [POM-L-BHDU]
EC50 (HSV-1; read-out: EC50 against HSV-1): 0.028 µM
anti-HSV-2 activity (in words) (HSV-2): active
anti-HSV-2 activity (in words) (HSV-2; listed as POM-L-BDHU): significant activity
EC50 (HSV-2; read-out: EC50 against HSV-2): 1.4 µM
tolerability / toxicity in mice [10]: without significant toxicity
tolerability / toxicity in mice ([10]; listed as POM-L-BDHU): well-tolerated
oral in vivo effectiveness in comparison to cidofovir (ip route) (VZV-ORF57-Luc [1]; oral, FIG. 6B): orally equal effective in comparison to cidofovir
in vivo antiviral activity against VZV (in words) (VZV-ORF57-Luc [1]): most active; also recorded: superior antiviral potency compared to L-BHDU; also recorded: retained its antiviral potency; also recorded: better activity compared to parental molecule
in vivo antiviral activity against VZV (in words) (VZV-ORF57-Luc [1]; listed as POM (8)): better in vitro and in vivo activity in comparison to L-BDHU
dose effective in vivo (VZV-ORF57-Luc [1]): around 25 mg/kg/day
activity compared with cidofovir in repeated in vivo studies (VZV-ORF57-Luc [1]): more active than the cidofovir
prevention of VZV spread in adult human skin (VZV [7]): highly effective
prevention of HSV1 spread in adult human skin (HSV1): highly effective
prevention of HSV1 spread in adult human skin (HSV1; listed as L-BHDU-POM): highly effective; also recorded: more effective than topical acyclovir 0.5%
in vitro anti-VZV activity (in words) (VZV-ORF57-Luc [2]): significant anti-VZV activity; also recorded: good antiviral efficacy; also recorded: enhanced antiviral potency in comparison to L-BHDU
in vitro anti-VZV activity (in words) (VZV-ORF57-Luc [2]; listed as POM (8)): better in vitro and in vivo activity in comparison to L-BDHU
CC50 (Vero Cells): > 100 µM
CC50 [3]: > 100 µM
effect on cellular proliferation [3]: did not affect cellular proliferation

Nc1nc2c(ncn2COCCO)c(=O)[nH]1 [acyclovir, reference compound]
EC50 (HSV-1; Human alphaherpesvirus 1, read-out: EC50 against HSV-1): 0.0736 µM
